The values that follow come from patent US12551482B2, “Aurora kinase inhibitors” (The Regents of the University of California, priority 2013, dated 2026).

“Also recorded” adds a separate entry of the source.

One series deals with T1, Aurora A (Homo sapiens, UniProt O14965, T287D).
T1 construct: Aurora A (residues 123-390, T287D) was cloned into a pET28a plasmid; hexahistidine (PreScission Protease-cleavable) (cleaved yes); made in house; host or cells: E. coli BL-21(DE3)
T1 sequence (O14965 123-390 T287D): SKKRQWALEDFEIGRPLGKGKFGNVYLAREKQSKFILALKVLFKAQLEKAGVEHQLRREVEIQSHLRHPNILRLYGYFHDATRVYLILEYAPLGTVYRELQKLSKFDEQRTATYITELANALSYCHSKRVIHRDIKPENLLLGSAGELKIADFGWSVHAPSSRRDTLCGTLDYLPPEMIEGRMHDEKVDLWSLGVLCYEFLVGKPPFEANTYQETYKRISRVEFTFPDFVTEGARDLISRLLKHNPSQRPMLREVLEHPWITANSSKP
Kind of series: In vitro kinase assay for Aurora A (32P ATP). The class given is biochemical.

The subject of series [1] is MYCN. Nature of the series: MYCN protein by western blot in SK-N-BE(2) cells. The class given is cell-based. The note with it: for efficacy against MYCN (loss of MYCN protein), in words: 24 hrs, 1 μM of compound (FIG. 3). As to the method: (§1) Neuroblastoma tumor cell lines were obtained from the University of California San Francisco Cell Culture Facility (Kelly, SK-N-BE2, and SH-EP). SMS-KCN, SHEP MYCN^wt and MYCN^T58A/S62A cells were obtained. All cells were grown in RPMI with 10% FBS. Neuroblastoma cells were harvested and lysed with Cell Signaling Lysis buffer+1% SDS, sonicated and supernatants boiled in LDS sample buffer (Invitrogen). Western blots were performed as described previously (Chanthery et al., 2012), with primary antibodies to MYCN (ab24193, Abcam), Histone H3, P-Histone H3 (S10), Aurora A (Cell signaling), and GAPDH (Millipore). Western blot quantitation performed with ImageJ software.

The test system of the next series is p-Histone H3. Nature of the series: p-Histone H3 by immunoblot in compound-treated cells (structure-activity). The class given is cell-based. The method, then:
as §1

Series [2] has as its system MYCN. Nature of the series: MYCN levels in JM134- vs NHC532-treated cells (FIG. 10). Format: cell-based.
The test system of series [3] is MYCN amplified neuroblastoma cells. Nature of the series: Cell cycle by flow cytometry. The class given is cell-based. The method, then:
(§2) Neuroblastoma cells were treated for the indicated time, trypsinized, washed, stained with Dylight 800 at 0.3 μg/mL (Pierce, 46421), fixed with 1.5% PFA, and permeabilized with 100% methanol. Cells were then stained with antibodies against p-MPM2 (Millipore, 16-155), p-pan-Aurora (Cell Signaling, 2914), MYCN (Thermo, PA5-17403), rabbit IgG (Invitrogen, A10542), or mouse IgG (BioLegend, 405307). Cells were stained with DAPI at 0.3 μg/mL (Invitrogen, D21490) and analyzed on the BD LSR II flow cytometer. For cell cycle analysis, cells were stimulated with EdU for 2 hours prior to harvest, then probed using the Click-iT EdU Flow Cytometry Assay Kit (Invitrogen, C10424). Cells were stained with propidium iodide (BD, 556547) and analyzed on the BD FACSCalibur flow cytometer. Data was gated using Cytobank. For viability studies, neuroblastoma cells were plated in 96-well plates at a density of 1,000 cells/well for SHEP or 4,000 cells/well for Kelly or SK—N-BE2 cells, then incubated with indicated concentrations of drug for 72 hours at 37° C. Plates were frozen at −80° C. to induce cell lysis. CyQUANT reagent mixture (Invitrogen, C7026) was added to thawed plates, then fluorescence was measured. Alternatively, resazurin (Sigma-Aldrich, R7017) was added directly to wells following drug treatment then incubated for 4 hours at 37° C. prior to measuring fluorescence. Data was analyzed using GraphPad Prism software.

A further series relates to tumor-derived cell lines. Kind of series: Screen of panel of tumor-derived, genetically characterized cell lines. The class given is cell-based. The note with it: Wilcoxon Rank Sum test.
The test system of series [4] is Kelly MYCN-amplified neuroblastoma cells. Kind of series: Viability at 72 hrs, CyQUANT assay. The class given is cell-based. As to conditions: FIG. 1F, read-out: cellular EC50 at 72 hrs. The method, then:
as §2, with “Plates were frozen at −80° C. to induce cell lysis.” left out

In series [5] the test system is MYCN. Nature of the series: Screen of Kelly MYCN-amplified cells, western blot for MYCN. As to conditions: 1 μM, 24 hrs. The class given is cell-based. The method, then: as §1
(§3) To test whether this panel of 32 putative conformation-disrupting Aurora A inhibitors would destabilize MYCN, initially Kelly MYCN-amplified neuroblastoma cells were treated with candidate inhibitors and MYCN protein was measured by western blot. Phosphorylation of Histone H3, a known substrate for Aurora A and B and a marker for mitosis, was also assessed. FIGS. 1B and 5 show decreased levels of both MYCN protein and p-Histone H3 in response to several members of the screening panel (quantitated in FIG. 1).

The test system of the next series is phospho-histone H3. Kind of series: Screen of Kelly MYCN-amplified cells, western blot for phospho-histone H3. Format: cell-based. The note with it: 1 μM, 24 hrs. As to the method:
as §1, §3

For series [6], the system named is MYCN. Kind of series: Dose response immunoblot for MYCN in MYCN-amplified neuroblastoma cell lines (SK-N-BE(2), SMS-KCN, Kelly). Format: cell-based. The note with it: multiple cell lines, 24 hrs (FIGS. 1D and 7). As to the method:
as §1

In a further series the target is T2, Aurora A protein (Homo sapiens, UniProt O14965).
T2 construct: endogenous in cells; host or cells: SK-N-BE(2), SMS-KCN, Kelly neuroblastoma cells
T2 sequence (O14965 whole entry): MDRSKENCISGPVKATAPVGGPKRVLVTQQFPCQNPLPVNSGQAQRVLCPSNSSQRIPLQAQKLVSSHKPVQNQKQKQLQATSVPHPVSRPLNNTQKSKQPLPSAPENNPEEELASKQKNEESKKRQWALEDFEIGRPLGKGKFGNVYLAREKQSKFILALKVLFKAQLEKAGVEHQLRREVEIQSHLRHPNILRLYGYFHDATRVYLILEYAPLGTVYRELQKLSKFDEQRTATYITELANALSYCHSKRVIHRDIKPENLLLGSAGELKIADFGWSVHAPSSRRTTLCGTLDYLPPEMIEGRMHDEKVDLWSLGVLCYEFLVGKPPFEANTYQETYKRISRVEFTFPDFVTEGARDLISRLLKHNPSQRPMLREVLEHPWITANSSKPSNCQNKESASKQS
Kind of series: Dose response immunoblot for Aurora A protein in MYCN-amplified neuroblastoma cell lines. Format: cell-based. The note with it: across cell lines (FIGS. 1D and 7).

The subject of another series is P-Histone H3 (S10). Nature of the series: Dose response immunoblot for phosphorylation of Histone H3 (S10) in MYCN-amplified neuroblastoma cell lines. The class given is cell-based. As to conditions: FIGS. 1D and 7. As to the method: as §1
A further series concerns the target T3, MYCN-Aurora A complex (Homo sapiens, UniProt O14965).
T3 construct: Representative immunoprecipitation of MYCN and immunoblots from MYCN-amplified IMR32 cells; endogenous in cells
Nature of the series: Pulldown of MYCN and immunoblot for Aurora A. The class given is cell-based. The note with it: MYCN-amplified IMR32 cells, 4 hrs MG-132, 2 hrs drug, increasing concentrations.

Another series deals with phospho-pan-Aurora. Kind of series: Phospho-pan-Aurora by flow cytometry. The class given is cell-based. The note with it: 1 μM, 6 hrs (FIG. 6C). As to the method: as §2
For series [7] the following is noted: delivered at the same dose (20 mg/kg); cited from earlier work.
The subject of series [8] is MYCN. Kind of series: MYCN protein by immunoblot in SHEP cells expressing MYCN. The class given is cell-based. As to conditions: SHEP cells expressing MYCNWT, 24 hrs, increasing concentrations (FIG. 12C). The method, then: as §1
MYCN is believed to be sequentially phosphorylated at S62/T58 before it is targeted for degradation by ubiquitination, and only phosphorylated, ubiquitinated MYCN is protected from degradation by Aurora A (Gustafson and Weiss, 2010; Otto et al., 2009).

T3 sequence (O14965 whole entry, one chain of several): as the sequence (O14965 whole entry) above
Method for Aurora A protein: Neuroblastoma tumor cell lines were obtained from the University of California San Francisco Cell Culture Facility (Kelly, SK-N-BE2, and SH-EP). SMS-KCN, SHEP MYCN^wt and MYCN^T58A/S62A cells were obtained. All cells were grown in RPMI with 10% FBS. Neuroblastoma cells were harvested and lysed with Cell Signaling Lysis buffer+1% SDS, sonicated and supernatants boiled in LDS sample buffer (Invitrogen). […] Western blot quantitation performed with ImageJ software.

As to `Cc1cc(Nc2cc(C3CCCC3)[nH]n2)nc(Nc2ccc(NC(=O)Nc3cccc(C(F)(F)F)c3)cc2)n1` [CD15, 1-(4-((4-((5-cyclopentyl-1H-pyrazol-3-yl)amino)-6-methylpyrimidin-2-yl)amino)phenyl)-3-(3-(trifluoromethyl)phenyl)urea], the “potency against Aurora A (biochemical, cell-free), in words” value on Aurora A is “maintained both cell-free potency and efficacy against MYCN”. Besides, the “efficacy against MYCN (loss of MYCN protein), in words” value in the series with MYCN [1] was “maintained both cell-free potency and efficacy against MYCN”.

In the case of `Cc1cc(Nc2cc(C3CCCCC3)[nH]n2)nc(Nc2ccc(NC(=O)Nc3cccc(C(F)(F)F)c3)cc2)n1` [CD22, 3-[4-({4-[(5-cyclohexyl-1H-pyrazol-3-yl)amino]-6-methylpyrimidin-2-yl}amino)phenyl]-1-[3-(trifluoromethyl)phenyl]urea], the “potency against Aurora A (biochemical, cell-free), in words” value at Aurora A was “lost both potency against Aurora A and efficacy against MYCN”. Further, in the series on MYCN [1], the “efficacy against MYCN (loss of MYCN protein), in words” value was “lost both potency against Aurora A and efficacy against MYCN”.

Regarding `Cc1cc(Nc2cc(C3CCCCC3)[nH]n2)nc(Nc2ccc(NC(=O)Nc3ccccc3)cc2)n1` [CD24, 3-[4-({4-[(5-cyclohexyl-1H-pyrazol-3-yl)amino]-6-methylpyrimidin-2-yl}amino)phenyl]-1-phenylurea], on Aurora A, the “potency against Aurora A (biochemical, cell-free), in words” value was “lost both potency against Aurora A and efficacy against MYCN”. The “efficacy against MYCN (loss of MYCN protein), in words” value in the series with MYCN [1] is “lost both potency against Aurora A and efficacy against MYCN”.

On to `O=C(Nc1ccccc1)Nc1ccc(Nc2nccc(Nc3cc(C4CCCC4)[nH]n3)n2)cc1` [CD25, 3-[4-({4-[(5-cyclopentyl-1H-pyrazol-3-yl)amino]pyrimidin-2-yl}amino)phenyl]-1-phenylurea], for which the “potency against Aurora A (biochemical, cell-free), in words” value at Aurora A is listed as “retained potency against Aurora Kinase A activity”. In addition, in the series with MYCN [1], the “efficacy against MYCN (loss of MYCN protein), in words” value is on record as “less effective than CD532 in driving MYCN loss”. The “Histone H3 phosphorylation” value with p-Histone H3 (SK-N-BE(2) cells, 24 hrs, 1 μM (FIG. 3D)) was “loss of Histone H3 phosphorylation”.

With `O=C(Nc1ccc(Nc2nccc(Nc3cc(-c4ccco4)[nH]n3)n2)cc1)Nc1cccc(C(F)(F)F)c1` [JM134, 1-(4-((4-((5-(furan-2-yl)-1H-pyrazol-3-yl)amino)pyrimidin-2-yl)amino)phenyl)-3-(3-(trifluoromethyl)phenyl)urea], on Aurora A, the “increase in biochemical IC50 against Aurora A compared to NHC532 (CD532)” value is on record as 5 fold and the “potency against Aurora A (biochemical, cell-free), in words” value is recorded as “decreased binding affinity to Aurora A”. Moreover, in the series on p-Histone H3 (FIG. 10), the “level of p-Histone H3 compared to NHC532-treated cells” value was “higher level of p-Histone H3”. Besides, the “MYCN levels compared to NHC532 (CD532)” value in the series with MYCN [2] is “still decreases MYCN levels (though not as completely)”.

With `Cc1sc2c(c1C)C(c1ccc(Cl)cc1)=N[C@@H](CC(=O)OC(C)(C)C)c1nnc(C)n1-2` [JQ1, reference compound], the cell cycle effect entry in series [3] (24 hrs of treatment) is “blockade of S-phase entry and accumulation of cells in G0/G1”. Besides, the “susceptibility of MYCN amplified vs non-amplified cell lines” value with tumor-derived cell lines was “significantly more susceptible to JQ1 than non-amplified lines”.

In the case of `COc1cc(Nc2ncc3c(n2)-c2ccc(Cl)cc2C(c2c(F)cccc2OC)=NC3)ccc1C(=O)O` [MLN8237], the EC50 in [4] was found to be 0.0339 µM. In addition, in the series with MYCN [1] (1 μM, time course (FIG. 12A)), the “time dependence of MYCN protein loss” value is “similarly rapid, but much more modest decrease in levels of MYCN protein that does not change over time”. Moreover, in the series on MYCN [5], the MYCN protein level result was “much more modest effects on levels of MYCN protein”. In the series with phospho-histone H3, the “p-Histone H3 level” value was “blocked Histone H3 phosphorylation at 1 μM”. The “MYCN protein, dose response” value with MYCN [6] is “little or no response to high concentrations; also recorded: little loss of MYCN protein even at doses 100 to 1000 times greater than their IC50 values for Aurora A”. In addition, the “Aurora A protein level” value at Aurora A protein is given as “upregulated or had little effect on Aurora A protein”. For the same compound, in the series with P-Histone H3 (S10), the “phosphorylation of Histone H3 at S10, dose response” value was “initial increase in S10 phosphorylation at lower concentrations, followed by a sharp drop at higher concentrations”. On MYCN-Aurora A complex, the “MYCN-Aurora A interaction” value is reported as “partial loss of interaction; also recorded: only modestly disrupted this interaction”. Further, the cell cycle effect entry in series [3] (4 or 6 hrs of treatment) was “G2/M arrest”. Also, the phospho-pan-Aurora entry with phospho-pan-Aurora is on record as “loss of phospho-pan-Aurora”. For the same compound, in series [7], the AUC0-24 was 78.4 µM·h.

`Cc1cc(Nc2cc(N3CCN(C)CC3)nc(Sc3ccc(NC(=O)C4CC4)cc3)n2)n[nH]1` [VX-680]: the MYCN protein level result in the series on MYCN [5] is “much more modest effects on levels of MYCN protein”. In addition, the “p-Histone H3 level” value in the series with phospho-histone H3 is on record as “blocked Histone H3 phosphorylation at 1 μM”. Besides, the “MYCN protein, dose response” value in the series on MYCN [6] is listed as “little loss of MYCN protein even at doses 100 to 1000 times greater than their IC50 values for Aurora A”. Also, the “phosphorylation of Histone H3 at S10, dose response” value in the series with P-Histone H3 (S10) is recorded as “abrogates phosphorylation of Histone H3 at S10”. In the series with MYCN [8], the “wild-type MYCN protein” value was “little effect on MYCN protein levels”. Further, the cell cycle effect entry in series [3] (4 or 6 hrs of treatment) is “G2/M arrest”. The phospho-pan-Aurora entry in the series with phospho-pan-Aurora is on record as “loss of phospho-pan-Aurora”.
